Assay results from the METLIN SMRT retention time set (Domingo-Almenara et al. 2019).

Assay: gradient 5% acetonitrile 3 min, to 50% in 2 min, to 85% in 15 min, held 3 min, 100 µL/min
Details: column: Zorbax Extend-C18 2.1 x 50 mm; eluents: water / acetonitrile, 0.1% formic acid
Outline: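 Mixtures of ~100 pure standards were chromatographed on a Zorbax Extend-C18 column (2.1 × 50 mm, 1.8 μm) at 100 μL/min using water and acetonitrile, each with 0.1% formic acid. Detection used a quadrupole time-of-flight mass spectrometer in positive and negative ionization mode, and data collection spanned 3 months. Retention time was obtained from adduct peaks picked computationally and each checked manually.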

SMILES | RP-LC retention time
CCNC(=O)N1CC(C)Oc2ccccc21 (configuration not stated) | 762 s
CCC(=O)Nc1ccc(-n2cnc(C(=O)N3CCC4(CC3)OCCO4)c2)nc1 | 616 s
CCNc1cc(-n2ccnc2)ncn1 | 541 s
O=C(c1ccc2cc[nH]c2c1)N1CCCN(c2cc(-c3ccc(Cl)cc3)[nH]n2)CC1 | 770 s
CC(C(=O)NCCCN1CCC(N2CCCCC2)CC1)n1c(=O)c(C(F)(F)F)nc2ccccc21 (configuration not stated) | 595 s
CCN1c2ccc(Cl)cc2C(=O)NC12CCN(C(=O)Nc1cccc(OC)c1)CC2 | 852 s
O=C(NCCN1CCN(c2ccc(Cl)cc2)CC1)C1CC1 | 576 s
COc1ccc(NC(=O)N2CCC(n3c(C(F)(F)F)nc4cccnc43)CC2)cc1OC | 768 s
O=C(NCc1ccc2c(c1)OCO2)C(=O)Nc1ccon1 | 655 s
Cc1ccc(S(=O)(=O)N(c2ccc(Br)cc2)C2C=CS(=O)(=O)C2)cc1 (configuration not stated) | 887 s
O=C(Nc1ccc2ncnc(N3CCCC3)c2c1)c1cncc(Br)c1 | 639 s
CNC(=O)N1CCC(C2CCN(C(=O)CSC)C2)CC1 (configuration not stated) | 608 s
O=C(C1CC(=O)N(c2ccc3c(c2)CCN3C(=O)C2CC2)C1)N1CCOCC1 (configuration not stated) | 634 s
CN(C)c1ncncc1N1CCC(C(=O)N2CCN(c3ccc(F)cc3)CC2)CC1 | 641 s
CCOC(=O)c1[nH]c(C)c(CCC(=O)N2CCC(C(=O)NCc3ccc(C)o3)CC2)c1C | 739 s
COc1cc(OC)cc(C(=O)N2CCC3(CC2)NC(=O)c2ccccc2N3C)c1 | 734 s
O=C(Cn1nc(N2CCCCCC2)c2ccccc2c1=O)Nc1ccc(F)c(F)c1 | 1150 s
CCc1cccc(C)c1Nc1c(-c2cccc(O)c2)nc2cnccn12 | 750 s
COC(=O)c1c(NCc2ccccc2)c2cccc(Cl)c2[nH]c1=O | 786 s
C[C@]12CC[C@@H]3c4ccc(O)cc4C[C@@H](CCCCCCCCCS(=O)CCCC(F)(F)C(F)(F)F)[C@H]3[C@@H]1CC[C@@H]2O (some centres not stated) | 1250 s
CC(C)CCNC(=O)C1CCN(c2cncnc2N(C)C)CC1 | 564 s
O=C(Cn1cccc1-c1nc(-c2ccccc2)no1)N1CCCc2ccccc21 | 1210 s
CC(C)C(=O)N1CCc2ccc([N+](=O)[O-])cc2C1 | 728 s
CCOCCOC1CCN(S(=O)(=O)c2ccc(OC)cc2)CC1 | 831 s
CCCS(=O)(=O)c1nc2ccc(NS(=O)(=O)c3ccccc3F)cc2s1 | 882 s

Continued, values first:

RP-LC retention time | SMILES
656 s | Cc1ccc(CCN2CC(C(=O)N3CCN(c4cc(=O)n(C)c(=O)n4C)CC3)CC2=O)cc1 (configuration not stated)
937 s | Fc1ccc(Cn2cc(-c3noc(-c4ccc5c(c4)OCO5)n3)nn2)cc1
681 s | COCCc1noc(-c2cnc3nc(C)ccc3c2Nc2ccc(OC)cc2)n1
814 s | Cc1ccc(Cl)cc1N1C(=O)CN(S(C)(=O)=O)CC1(C)C(=O)NCc1ccc(F)cc1 (configuration not stated)
774 s | Cc1cc2nn(CC(=O)N3CCCC3)c(=O)n2c(-c2ccc(C(F)(F)F)cc2)n1
960 s | Cc1cc(-c2nnc(C3CCC3)o2)c(C)n1CC(=O)Nc1cccc(Cl)c1
616 s | Cc1ccc(S(=O)(=O)N2CCn3c(nnc3C3CCN(C(C)C)C3)C2)c(C)c1 (configuration not stated)
1220 s | CCn1c(=O)c(C)nc2cc(-c3noc(-c4cccc(Cl)c4)n3)ccc21
784 s | CCc1noc(-c2ccnc(-n3cnc(C(=O)NC(C)C)c3)c2)n1
802 s | Cc1ccc(Cc2nnc(NC(=O)c3cc(C)n(C(C)C)n3)o2)cc1
733 s | CC(C)NC(=O)c1ccc2c(c1)CCN2C(=O)C(C)C
738 s | CCc1ccc(C2=C(C)C(N3CCC(C(=O)NC)CC3)=NS2(=O)=O)cc1
